Common to all, as to type: cell-based
One test concerns the target T1, human TLR7 (Homo sapiens, UniProt Q9NYK1).
T1 construct: host or cells: HEK-Blue cells
T1 sequence (Q9NYK1 27-1049): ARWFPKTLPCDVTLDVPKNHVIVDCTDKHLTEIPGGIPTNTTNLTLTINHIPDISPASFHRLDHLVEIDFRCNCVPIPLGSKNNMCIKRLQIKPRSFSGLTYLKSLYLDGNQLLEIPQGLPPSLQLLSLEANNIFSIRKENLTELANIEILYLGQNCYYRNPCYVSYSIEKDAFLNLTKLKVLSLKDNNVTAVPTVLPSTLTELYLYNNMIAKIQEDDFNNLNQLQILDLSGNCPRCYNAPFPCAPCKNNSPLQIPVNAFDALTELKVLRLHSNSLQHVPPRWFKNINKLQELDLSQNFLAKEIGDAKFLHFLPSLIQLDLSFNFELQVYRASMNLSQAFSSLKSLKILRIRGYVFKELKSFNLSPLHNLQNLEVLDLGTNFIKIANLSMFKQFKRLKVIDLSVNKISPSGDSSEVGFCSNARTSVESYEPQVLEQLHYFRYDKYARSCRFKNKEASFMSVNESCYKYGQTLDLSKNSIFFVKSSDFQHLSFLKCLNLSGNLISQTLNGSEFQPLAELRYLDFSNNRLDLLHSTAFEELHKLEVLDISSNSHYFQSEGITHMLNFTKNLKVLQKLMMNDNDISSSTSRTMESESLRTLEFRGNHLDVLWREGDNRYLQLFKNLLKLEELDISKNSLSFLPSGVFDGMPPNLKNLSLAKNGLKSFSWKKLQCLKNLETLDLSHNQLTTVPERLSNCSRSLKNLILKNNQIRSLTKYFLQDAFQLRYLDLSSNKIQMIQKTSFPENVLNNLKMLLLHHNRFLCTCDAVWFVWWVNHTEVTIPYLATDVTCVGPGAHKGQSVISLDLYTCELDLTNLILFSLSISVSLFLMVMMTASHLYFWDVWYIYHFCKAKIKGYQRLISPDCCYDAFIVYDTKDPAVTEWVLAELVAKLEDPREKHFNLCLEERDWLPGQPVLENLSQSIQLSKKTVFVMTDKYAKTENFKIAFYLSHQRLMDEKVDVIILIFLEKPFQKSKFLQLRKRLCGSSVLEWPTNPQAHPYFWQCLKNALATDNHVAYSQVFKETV
As to the kind of experiment: TLR7 inhibition reporter assay (HEK-Blue cells, SEAP reporter, gardiquimod stimulation). Particulars: HEK-Blue cells overexpressing human TLR7, SEAP reporter, gardiquimod 7.5 μM. Put shortly:
(§1)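 30 min RT cpd pre-incubation (0.05 nM–50 μM final dose response) → agonist: gardiquimod 7.5 μM / R848 15.9 μM / ODN2006 5 nM for TLR7/8/9 resp. → 22 h, 37° C → SEAP via detection medium. % inhibition vs agonist+DMSO and reference inhibitor controls.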

The target of another test is T2, human TLR8 (Homo sapiens, UniProt Q9NR97).
T2 construct: host or cells: HEK-Blue cells
T2 sequence (Q9NR97 27-1041): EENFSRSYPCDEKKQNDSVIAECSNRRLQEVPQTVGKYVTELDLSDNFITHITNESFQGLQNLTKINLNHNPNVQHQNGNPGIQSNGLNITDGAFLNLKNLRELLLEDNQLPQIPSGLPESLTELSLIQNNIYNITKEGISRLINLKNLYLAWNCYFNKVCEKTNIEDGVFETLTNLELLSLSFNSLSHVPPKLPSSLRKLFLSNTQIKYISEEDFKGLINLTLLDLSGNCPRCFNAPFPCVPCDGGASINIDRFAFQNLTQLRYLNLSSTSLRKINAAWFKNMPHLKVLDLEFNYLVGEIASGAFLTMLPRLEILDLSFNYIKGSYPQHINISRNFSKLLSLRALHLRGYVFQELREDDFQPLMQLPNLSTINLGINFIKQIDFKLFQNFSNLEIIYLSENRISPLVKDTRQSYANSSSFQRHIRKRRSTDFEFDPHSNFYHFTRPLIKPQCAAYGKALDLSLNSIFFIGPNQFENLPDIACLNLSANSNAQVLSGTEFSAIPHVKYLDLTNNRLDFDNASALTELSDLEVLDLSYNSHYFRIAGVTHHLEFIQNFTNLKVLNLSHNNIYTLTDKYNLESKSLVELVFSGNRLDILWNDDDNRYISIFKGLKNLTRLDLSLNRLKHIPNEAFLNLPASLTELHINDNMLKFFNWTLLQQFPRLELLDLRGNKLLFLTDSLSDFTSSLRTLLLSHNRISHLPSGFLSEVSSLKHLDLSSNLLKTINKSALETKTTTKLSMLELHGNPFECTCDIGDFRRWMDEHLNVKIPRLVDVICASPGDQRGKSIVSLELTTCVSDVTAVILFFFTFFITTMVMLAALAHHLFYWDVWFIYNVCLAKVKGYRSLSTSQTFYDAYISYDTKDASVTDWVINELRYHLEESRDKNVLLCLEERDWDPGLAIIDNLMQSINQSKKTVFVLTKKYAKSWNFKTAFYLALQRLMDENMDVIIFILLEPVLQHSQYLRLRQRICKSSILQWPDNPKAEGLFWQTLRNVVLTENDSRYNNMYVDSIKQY
The test is described as follows: TLR8 inhibition reporter assay (HEK-Blue cells, SEAP reporter, R848 stimulation). Particulars: HEK-Blue cells overexpressing human TLR8, SEAP reporter, R848 15.9 μM. A digest of the protocol: as §1

A further test deals with T3, human TLR9 (Homo sapiens, UniProt Q9NR96).
T3 construct: host or cells: HEK-Blue cells
T3 sequence (Q9NR96 26-1032): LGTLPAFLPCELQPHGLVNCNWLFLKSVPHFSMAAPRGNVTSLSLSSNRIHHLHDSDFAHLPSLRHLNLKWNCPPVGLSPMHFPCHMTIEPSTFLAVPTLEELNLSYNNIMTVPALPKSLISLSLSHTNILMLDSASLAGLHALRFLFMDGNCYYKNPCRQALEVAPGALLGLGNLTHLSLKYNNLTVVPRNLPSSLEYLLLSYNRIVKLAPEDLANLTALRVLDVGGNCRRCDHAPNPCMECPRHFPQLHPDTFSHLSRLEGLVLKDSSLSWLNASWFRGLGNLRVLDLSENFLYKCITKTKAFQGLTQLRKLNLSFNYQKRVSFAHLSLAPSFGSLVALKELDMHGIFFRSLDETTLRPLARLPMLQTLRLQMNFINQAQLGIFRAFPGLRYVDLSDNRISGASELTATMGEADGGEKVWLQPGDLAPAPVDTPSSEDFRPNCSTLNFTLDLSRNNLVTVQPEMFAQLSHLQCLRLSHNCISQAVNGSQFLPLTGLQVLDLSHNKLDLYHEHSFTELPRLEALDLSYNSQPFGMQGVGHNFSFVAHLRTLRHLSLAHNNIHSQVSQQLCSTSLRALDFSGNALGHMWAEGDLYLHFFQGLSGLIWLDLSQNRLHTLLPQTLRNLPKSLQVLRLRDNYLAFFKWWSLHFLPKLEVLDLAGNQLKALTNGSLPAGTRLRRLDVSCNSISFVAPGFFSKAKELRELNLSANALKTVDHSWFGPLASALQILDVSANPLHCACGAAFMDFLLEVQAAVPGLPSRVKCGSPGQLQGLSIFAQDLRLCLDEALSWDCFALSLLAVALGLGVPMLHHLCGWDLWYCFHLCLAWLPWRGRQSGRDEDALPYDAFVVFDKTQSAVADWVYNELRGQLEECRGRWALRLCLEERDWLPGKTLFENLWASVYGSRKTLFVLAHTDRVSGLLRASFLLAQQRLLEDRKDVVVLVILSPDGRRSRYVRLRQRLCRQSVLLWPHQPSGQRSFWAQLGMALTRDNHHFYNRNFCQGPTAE
The test is described as follows: TLR9 inhibition reporter assay (HEK-Blue cells, SEAP reporter, ODN2006 stimulation). Particulars: HEK-Blue cells overexpressing human TLR9, SEAP reporter, ODN2006 5 nM. Put shortly: as §1

In the case of `Cc1cc(-c2[nH]nc(-c3ccc(C4CCN(C5COC5)CC4)cc3)c2C(C)C)cn2ncnc12` [Example 311], the IC50 against human TLR7 is 1400 nM; on human TLR8, > 3130 nM; against human TLR9, 18800 nM.
As for `Cc1cc(-c2[nH]nc(C(=O)NCC3CNC3)c2C(C)C)cn2ncnc12` [Example 49], the IC50 on human TLR7 is 0.97 nM; on human TLR8 it was 0.48 nM; against human TLR9 it was 9220 nM.
The matching figures for `Cc1cc(-c2[nH]nc(C(=O)N[C@H]3CC[C@H](NC(C)C(C)C)CC3)c2C(C)C)cn2ncnc12` (stereo partly drawn) [Example 118]: 2 nM, 1.26 nM and 3300 nM.
Take `Cc1cc(-c2[nH]nc(-c3ccc(C4CCNCC4)nn3)c2C(C)C)cn2ncnc12` [Example 344]: the results for the IC50 at human TLR7, against human TLR8 and against human TLR9 were 39 nM, 12.7 nM and > 50000 nM, respectively.
In the case of `Cc1cc(-c2[nH]nc(-c3cnc(N(C)C)cn3)c2C(C)C)cn2ncnc12` [Example 236], the IC50 amounted to 1.36 nM on human TLR7, 18.7 nM on human TLR8 and 25400 nM against human TLR9.
In the case of `Cc1cc(-c2[nH]nc(C(=O)NC3CCN(C(C)C)CC3)c2C(C)C)cn2ncnc12` [Example 2], the figures for the IC50 on human TLR7, at human TLR8 and against human TLR9 were 2.27 nM, 5.82 nM and 6560 nM, respectively.
With `Cc1cc(-c2[nH]nc(-c3cncc(N(C)C)c3)c2C(C)C)cn2ncnc12` [Example 238], the values for the IC50 against human TLR7, against human TLR8 and at human TLR9 were 5.4 nM, 5.96 nM and 5370 nM, respectively.
As to `Cc1cc(-c2[nH]nc(-c3ccc(C4CCN(C)CC4)cc3)c2C(C)C)cn2ncnc12` [Example 309], the IC50 on human TLR7 was found to be 6.67 nM; at human TLR8, 4.19 nM; at human TLR9, 14400 nM.
In the case of `CCNc1ccc2nc(-c3n[nH]c(-c4cc(C)c5ncnn5c4)c3C(C)C)sc2c1` [Example 257], the IC50 on human TLR7 was 13.6 nM; at human TLR8, 0.86 nM; at human TLR9, 34900 nM.
Turning to `Cc1cc(-c2[nH]nc(C3CCN(C(C)C)CC3)c2C(C)C)cn2ncnc12` [compound 207], the IC50 turned out to be 2.92 nM against human TLR7, 0.31 nM against human TLR8 and 20700 nM on human TLR9.
In the case of `Cc1cc(-c2[nH]nc(C(=O)N[C@H]3CCCN(C4COC4)C3)c2C(C)C)cn2ncnc12` [Example 166], the values for the IC50 on human TLR7, against human TLR8 and against human TLR9 were 0.88 nM, 0.87 nM and 383 nM, respectively.
Regarding `Cc1cc(-c2[nH]nc(-c3ncc(C4CCNCC4)cn3)c2C(C)C)cn2ncnc12` [Example 341], the IC50 against human TLR7 came out at 7.86 nM; on human TLR8, 9 nM; against human TLR9, 16500 nM.
`Cc1cc(-c2[nH]nc(C(=O)NC3CCN(CCCC(F)(F)F)CC3)c2C(C)C)cn2ncnc12` [Example 71]: the IC50 against human TLR7 came out at 6.92 nM; at human TLR8 it was 19 nM; on human TLR9, 5810 nM.
On to `COc1cc(-c2[nH]nc(-c3cnc(C4CCN(CC(C)C)CC4)cn3)c2C(C)C)cn2ncnc12` [Example 379], for which the IC50 at human TLR7 is 55.7 nM; against human TLR8, 22.9 nM; on human TLR9, 28000 nM.
With `COc1cc(-c2[nH]nc(-c3ccc(C4CN(CCS(C)(=O)=O)C4)cc3)c2C(C)C)cn2ncnc12` [Example 338], the IC50 against human TLR7 is 10.1 nM; against human TLR8 it was 31.1 nM; against human TLR9, 45600 nM.
For `Cc1cc(-c2[nH]nc(C(=O)NC3CN(CC4(C)COC4)C3)c2C(C)C)cn2ncnc12` [Example 154], the IC50 on human TLR7 amounted to 11.9 nM; on human TLR8, 3.33 nM; against human TLR9 it was 9310 nM.
The corresponding values for `CCCN1CCc2nc(-c3n[nH]c(-c4cc(OC)c5ncnn5c4)c3C(C)C)sc2C1` [Example 260] are 170 nM, 138 nM and > 50000 nM.
For `Cc1cc(-c2[nH]nc(-c3ncc(C4CCN(C)CC4)cn3)c2C(C)C)cn2ncnc12` [Example 368], the results for the IC50 on human TLR7, against human TLR8 and at human TLR9 were 10.5 nM, 28.1 nM and 5460 nM, respectively.
Consider `COc1cc(-c2[nH]nc(-c3ccc(C4CCN(C)CC4)cc3)c2C(C)C)cn2ncnc12` [Example 314], for which the IC50 against human TLR7 is 13.9 nM; at human TLR8, 18.5 nM; against human TLR9, > 50000 nM.
Turning to `Cc1cc(-c2[nH]nc(C(=O)N[C@H]3CC[C@@H](NCC4CCOCC4)CC3)c2C(C)C)cn2ncnc12` [Example 92], the IC50 amounted to 0.31 nM on human TLR7, 2.34 nM against human TLR8 and 4110 nM against human TLR9.
As for `Cc1cc(-c2[nH]nc(C3CCN(CC(=O)N(C)C)CC3)c2C(C)C)cn2ncnc12` [compound 212], the IC50 turned out to be 0.62 nM on human TLR7, 0.63 nM against human TLR8 and 7390 nM at human TLR9.
The corresponding values for `COc1cc(-c2[nH]nc(-c3nc4c(s3)CNCC4)c2C(C)C)cn2ncnc12` [Example 220] are 1.4 nM, 4.38 nM and > 50000 nM.

Values taken from patent US20230117470A1, “SUBSTITUTED PYRAZOLE COMPOUNDS AS TOLL RECEPTOR INHIBITORS” (BRISTOL-MYERS SQUIBB COMPANY, priority 2019, published 2023).
